Measurements reported in ChEMBL document CHEMBL3046898, “Synthesis and characterization of flurbiprofen hydrazide derivatives as potential anti-HCV, anticancer and antimicrobial agents” (2013).
Calls of active or inactive are those of the source. The calls are words filed in the database; no cut-off is given here.

Legend:
Pseudomonas aeruginosa = test: Antibacterial activity against Pseudomonas aeruginosa at 6.25 to 200 ug/ml after 24 hrs by microwell dilution method; type: functional, organism-based
Proteus vulgaris = test: Antibacterial activity against Proteus vulgaris at 6.25 to 200 ug/ml after 24 hrs by microwell dilution method; type: functional, organism-based
Escherichia coli [1] = test: Antibacterial activity against Escherichia coli at 6.25 to 200 ug/ml after 24 hrs by microwell dilution method; type: functional, organism-based
Micrococcus luteus = test: Antibacterial activity against Micrococcus luteus at 6.25 to 200 ug/ml after 24 hrs by microwell dilution method; type: functional, organism-based
[2] = system: Schwanniomyces occidentalis; test: Antifungal activity against Schwanniomyces occidentalis at 10 mg/ml after 48 hrs by disc diffusion method; type: functional, organism-based
Candida parapsilosis = test: Antifungal activity against Candida parapsilosis at 10 mg/ml after 48 hrs by disc diffusion method; type: functional, organism-based
Candida albicans = test: Antifungal activity against Candida albicans at 10 mg/ml after 48 hrs by disc diffusion method; type: functional, organism-based
HCC 2998 = test: Cytotoxicity against human HCC2998 assessed as cell growth at 10 uM after 48 hrs by SRB assay; type: functional; conditions: HCC 2998, 48 h, read-out: Activity
MDA-MB-231 = test: Cytotoxicity against human MDA-MB-231 assessed as cell growth at 10 uM after 48 hrs by SRB assay; type: functional; conditions: MDA-MB-231, 48 h, read-out: Activity
Hs-578T = test: Cytotoxicity against human Hs 578T assessed as cell growth at 10 uM after 48 hrs by SRB assay; type: functional; conditions: read-out: Activity
DU-145 = test: Cytotoxicity against human DU145 assessed as cell growth at 10 uM after 48 hrs by SRB assay; type: functional; conditions: DU-145, 48 h, read-out: Activity
UO-31 = test: Cytotoxicity against human UO31 assessed as cell growth at 10 uM after 48 hrs by SRB assay; type: functional; conditions: UO-31, 48 h, read-out: Activity
TK-10 = test: Cytotoxicity against human TK10 assessed as cell growth at 10 uM after 48 hrs by SRB assay; type: functional; conditions: TK-10, 48 h, read-out: Activity
RXF 393 = test: Cytotoxicity against human RXF393 assessed as cell growth at 10 uM after 48 hrs by SRB assay; type: functional; conditions: RXF 393, 48 h, read-out: Activity
786-0 = test: Cytotoxicity against human 786-0 assessed as cell growth at 10 uM after 48 hrs by SRB assay; type: functional; conditions: 786-0, 48 h, read-out: Activity
OVCAR-5 = test: Cytotoxicity against human OVCAR5 assessed as cell growth at 10 uM after 48 hrs by SRB assay; type: functional; conditions: OVCAR-5, 48 h, read-out: Activity
OVCAR-4 = test: Cytotoxicity against human OVCAR4 assessed as cell growth at 10 uM after 48 hrs by SRB assay; type: functional; conditions: OVCAR-4, 48 h, read-out: Activity
OVCAR-3 = test: Cytotoxicity against human OVCAR3 assessed as cell growth at 10 uM after 48 hrs by SRB assay; type: functional; conditions: OVCAR-3, 48 h, read-out: Activity
UACC-257 = test: Cytotoxicity against human UACC257 assessed as cell growth at 10 uM after 48 hrs by SRB assay; type: functional; conditions: UACC-257, 48 h, read-out: Activity
MDA-MB-435 = test: Cytotoxicity against human MDA-MB-435 assessed as cell growth at 10 uM after 48 hrs by SRB assay; type: functional; conditions: MDA-MB-435, 48 h, read-out: Activity
M14 = test: Cytotoxicity against human M14 assessed as cell growth at 10 uM after 48 hrs by SRB assay; type: functional; conditions: M14, 48 h, read-out: Activity
LOX IMVI = test: Cytotoxicity against human LOXIMVI assessed as cell growth at 10 uM after 48 hrs by SRB assay; type: functional; conditions: read-out: Activity
U-251 = test: Cytotoxicity against human U251 assessed as cell growth at 10 uM after 48 hrs by SRB assay; type: functional; conditions: U-251, 48 h, read-out: Activity
SNB-19 = test: Cytotoxicity against human SNB19 assessed as cell growth at 10 uM after 48 hrs by SRB assay; type: functional; conditions: SNB-19, 48 h, read-out: Activity
SF-295 = test: Cytotoxicity against human SF295 assessed as cell growth at 10 uM after 48 hrs by SRB assay; type: functional; conditions: SF-295, 48 h, read-out: Activity
KM12 = test: Cytotoxicity against human KM12 assessed as cell growth at 10 uM after 48 hrs by SRB assay; type: functional; conditions: KM12, 48 h, read-out: Activity
SW-620 = test: Cytotoxicity against human SW620 assessed as cell growth at 10 uM after 48 hrs by SRB assay; type: functional; conditions: SW-620, 48 h, read-out: Activity
HT-29 = test: Cytotoxicity against human HT-29 assessed as cell growth at 10 uM after 48 hrs by SRB assay; type: functional; conditions: HT-29, 48 h, read-out: Activity
NCI-H522 = test: Cytotoxicity against human NCI-H522 assessed as cell growth at 10 uM after 48 hrs by SRB assay; type: functional; conditions: NCI-H522, 48 h, read-out: Activity
NCI-H23 = test: Cytotoxicity against human NCI-H23 assessed as cell growth at 10 uM after 48 hrs by SRB assay; type: functional; conditions: NCI-H23, 48 h, read-out: Activity
HOP-92 = test: Cytotoxicity against human HOP92 assessed as cell growth at 10 uM after 48 hrs by SRB assay; type: functional; conditions: HOP-92, 48 h, read-out: Activity
Salmonella paratyphi = test: Antibacterial activity against Salmonella paratyphi at 6.25 to 200 ug/ml after 24 hrs by microwell dilution method; type: functional, organism-based; conditions: Salmonella enterica subsp. enterica serovar Paratyphi A
A549 = test: Cytotoxicity against human A549 assessed as cell growth at 10 uM after 48 hrs by SRB assay; type: functional; conditions: A549, 48 h, read-out: Activity
RPMI-8226 = test: Cytotoxicity against human RPMI8226 assessed as cell growth at 10 uM after 48 hrs by SRB assay; type: functional; conditions: RPMI-8226, 48 h, read-out: Activity
Klebsiella aerogenes = test: Antibacterial activity against Enterobacter aerogenes at 10 mg/ml after 24 hrs by disc diffusion method; type: functional, organism-based
[3] = system: Acinetobacter radioresistens; test: Antibacterial activity against Acinetobacter radioresistens at 10 mg/ml after 24 hrs by disc diffusion method; type: functional, organism-based
Micrococcus lylae = test: Antibacterial activity against Micrococcus lylae at 10 mg/ml after 24 hrs by disc diffusion method; type: functional, organism-based
Escherichia coli [4] = test: Antibacterial activity against Escherichia coli at 10 mg/ml after 24 hrs by disc diffusion method; type: functional, organism-based
Staphylococcus cohnii = test: Antibacterial activity against Staphylococcus cohnii at 10 mg/ml after 24 hrs by disc diffusion method; type: functional
Hepacivirus hominis = test: Inhibition of HCV N-terminal His-tagged NS5B RNA dependent RNA polymerase expressed in Escherichia coli DH5alpha using poly rA/U12 as primer at 200 uM after 60 mins by liquid scintillation counting

Structure (SMILES): CC(C(=O)NN1C(=O)CSC1c1ccc(C(F)(F)F)cc1)c1ccc(-c2ccccc2)c(F)c1 (stereo not given)
- Activity (Pseudomonas aeruginosa): inactive
- Activity (Proteus vulgaris): inactive
- Activity (Escherichia coli [1]): inactive
- Activity (Micrococcus luteus): inactive
- Activity [2]: inactive
- Activity (Candida parapsilosis): inactive
- Activity (Candida albicans): inactive
- growth at 10 µM (HCC 2998): 155%
- growth at 10 µM (MDA-MB-231): 70.1%
- growth at 10 µM (Hs-578T): 54.2%
- growth at 10 µM (DU-145): 81.5%
- growth at 10 µM (UO-31): 58.8%
- growth at 10 µM (TK-10): 99.5%
- growth at 10 µM (RXF 393): 72.5%
- growth at 10 µM (786-0): 47.2%
- growth at 10 µM (OVCAR-5): 105%
- growth at 10 µM (OVCAR-4): 58.6%
- growth at 10 µM (OVCAR-3): 64.3%
- growth at 10 µM (UACC-257): 94.4%
- growth at 10 µM (MDA-MB-435): 66.7%
- growth at 10 µM (M14): 54.5%
- growth at 10 µM (LOX IMVI): 74.5%
- growth at 10 µM (U-251): 65.2%
- growth at 10 µM (SNB-19): 54.7%
- growth at 10 µM (SF-295): 58.4%
- growth at 10 µM (KM12): 46.2%
- growth at 10 µM (SW-620): 83.9%
- growth at 10 µM (HT-29): 55.1%
- growth at 10 µM (NCI-H522): 79.5%
- growth at 10 µM (NCI-H23): 90.4%
- growth at 10 µM (HOP-92): 59.9%
- Activity (Salmonella paratyphi): inactive
- growth at 10 µM (A549): 68.6%
- growth at 10 µM (RPMI-8226): 43.3%
- Activity (Klebsiella aerogenes): inactive
- Activity [3]: inactive
- Activity (Micrococcus lylae): inactive
- Activity (Escherichia coli [4]): inactive
- Activity (Staphylococcus cohnii): inactive
- inhibition (Hepacivirus hominis): 8%
